Test results reported in US20230357275A1, “SPIRO-SULFONAMIDE DERIVATIVES AS INHIBITORS OF MYELOID CELL LEUKEMIA-1 (MCL-1) PROTEIN” (Prelude Therapeutics, Incorporated, priority 2020, published 2023).

Tests used:
[1] = target: T1, MCL-1 (Homo sapiens, UniProt Q07820); experiment: Cell free Mcl-1:Bim affinity assay (Mcl-1 Bim), fluorescence polarization competition; format: binding; conditions: 15 nM MCL-1, 5 nM FITC-Bim tracer, 1 hour at room temperature; Ki calculated from IC50 by Nikolovska-Coleska's equation; read-out: BIM_ Ki
T1 construct: purchased BPS Bioscience
T1 sequence (Q07820 whole entry): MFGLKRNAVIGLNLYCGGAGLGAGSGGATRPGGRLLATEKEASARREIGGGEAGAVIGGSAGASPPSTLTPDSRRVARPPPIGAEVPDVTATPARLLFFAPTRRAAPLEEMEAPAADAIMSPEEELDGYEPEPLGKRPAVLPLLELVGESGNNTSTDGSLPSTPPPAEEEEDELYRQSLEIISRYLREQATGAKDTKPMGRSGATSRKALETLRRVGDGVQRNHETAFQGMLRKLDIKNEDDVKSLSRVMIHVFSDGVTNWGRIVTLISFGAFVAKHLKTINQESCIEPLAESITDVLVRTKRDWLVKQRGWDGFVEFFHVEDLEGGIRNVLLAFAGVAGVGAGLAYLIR
Method: The binding affinity of each compound was measured via a fluorescence polarization competition assay, in which the compound competes for the same binding site with the ligand, and thus leads to a dose-dependent anisotropy reduction. The tracer ligand utilized was a fluorescein isothiocyanate labelled peptide (FITC-[…]) derived from Bim (GenScript).
The assay was carried out in black half-area 96-well NBS plate (Coming), containing 15 nM of MCL-1 (BPS Bioscience), 5 nM of FITC-Bim and 3-fold serial diluted test compounds in a total volume of 50 µL of assay buffer (20 mM HEPES, 50 mM NaCl, 0.002% Tween 20, 1 mM TCEP, and 1% DMSO). The reaction plate was incubated for 1 hour at room temperature. The change of anisotropy is measured with an Envision multimode plate reader (PerkinElmer) at emission wavelength 535 nm. Fluorescence polarization was calculated in mP unit and the percentage inhibition was calculated by % inhibition = 100x(mPDMSO-mP)/(mPDMSO-mPPC), in which mPDMSO is the DMSO control, and mPPC is the positive control. IC50 values were determined from a 10-point dose response curve by fitting the percent inhibition against compound concentration using the GraphPad Prism software. The inhibition constant Ki was subsequently calculated according to the Nikolovska-Coleska’s equation (Anal. Biochem., 2004, 332, 261), […]

[2] = system: H929 cells; experiment: Cell viability assay (H929 10 FBS); format: cell-based; conditions: Homo sapiens, NCI-H929, 24 hours, CellTiTer-Glo or ATPlite, read-out: H929_10FB S IC50
Method: Dispense 10 µL aliquot of prepared H929 cells (1:1 ratio of cells:Trypan Blue (#1450013, Bio-Rad)) onto cell counting slide (#145-0011, Bio-Rad) and obtain cell density and cell viability using cell counter (TC20, Bio-Rad). Remove appropriate volume of resuspended cells from culture flask to accommodate 4000 cells/well @ 10 µL/well. Transfer H929 cells to 50 mL conical (#430290, Corning). Spin down at 1000 rpm for 5 min using tabletop centrifuge (SPINCHRON 15, Beckman). Discard supernatant and resuspend cell pellet in modified RPMI 1640 (#10-040-CV, Coming) cell culture media containing 10% FBS (F2422-500 ML, Sigma), sodium pyruvate (100 mM) (#25-000-CL, Corning), HEPES buffer (1 M) (#25-060-CL, Coming) and glucose (200 g/L) (A24940-01, Gibco) to a cell density of 400,000 cells/mL. Dispense 10 µL of resuspended H929 cells per well in 384-well small volume TC treated plate (#784080, Greiner Bio-one) using standard cassette (#50950372, Thermo Scientific) on Multi-drop Combi (#5840310, Thermo Scientific) in laminar flow cabinet. Dispense compounds onto plates using digital liquid dispenser (D300E, Tecan). Incubate plates in humidified tissue culture incubator @ 37° C. for 24 hours. […] Read plates with microplate reader (PheraStar, BMG Labtech) using 384 well luminescence mode.

Ki [1]: < 1 nM | IC50 [2]: < 500 nM
SMILES: CN(C)C(=O)O[C@H]1/C=C/COC(C)(C)C(=O)NS(=O)(=O)c2ccc3c(c2)N(C[C@@H]2CC[C@H]21)C[C@@]1(CCCc2cc(Cl)ccc21)CO3 [Example 34, [(3R,6R,7S,8E,22S)-6′-Chloro-12,12-dimethyl-13,15,15-trioxo-spiro [11,20-dioxa-15-thia-1,14-diazatetracyclo[14.7.2.03,6.019,24]pentacosa-8,16,18,24-tetraene-22,1′-tetralin]-7-yl] N,N-dimethylcarbamate]
